Key:
Test in all cases: relative viability (nuclei count vs DMSO), 5 days (fraction); higher = more cells survive
Irinotecan + Decitabine = compound: CCc1c2c(nc3ccc(OC(=O)N4CCC(N5CCCCC5)CC4)cc13)-c1cc3c(c(=O)n1C2)COC(=O)[C@]3(O)CC [Irinotecan] + Nc1ncn([C@H]2C[C@H](O)[C@@H](CO)O2)c(=O)n1 [Decitabine] (partner 2 µM)
Procedure, shortened: (§1)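 For relative viability, nuclei counts in treated wells were divided by those in vehicle wells. Lung cancer cell lines had been pin-tool dosed in 1536-well plates the day after seeding and cultured for 5 days, then fixed and stained in one step (final 0.05% Triton X-100, 1% formaldehyde, 1 ug/ml Hoechst) and imaged at 4×. Doses were one drug alone or a fixed anchor-drug dose plus five library-drug doses (not always all listed) in √10 steps, and values are duplicate-plate medians.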

Irinotecan + Luminespib = compound: CCc1c2c(nc3ccc(OC(=O)N4CCC(N5CCCCC5)CC4)cc13)-c1cc3c(c(=O)n1C2)COC(=O)[C@]3(O)CC [Irinotecan] + CCNC(=O)c1noc(-c2cc(C(C)C)c(O)cc2O)c1-c1ccc(CN2CCOCC2)cc1 [Luminespib] (partner 0.01 µM)
Procedure, shortened: as §1

RU-SKI 43 + Palbociclib = compound: CC[C@@H](C)CNCC(=O)N1CCC2=C([C@@H]1COC3=CC=CC(=C3)C)C=CS2 [RU-SKI 43] + CC(=O)c1c(C)c2cnc(Nc3ccc(N4CCNCC4)cn3)nc2n(C2CCCC2)c1=O [Palbociclib] (partner 0.5 µM)
Procedure, shortened: as §1

MK-8033 + Palbociclib = compound: Cn1cc(-c2cnc3ccc4ccc(CS(=O)(=O)NCc5ccccn5)cc4c(=O)c3c2)cn1 [MK-8033] + CC(=O)c1c(C)c2cnc(Nc3ccc(N4CCNCC4)cn3)nc2n(C2CCCC2)c1=O [Palbociclib] (partner 0.5 µM)
Procedure, shortened: as §1

Cell Line: UMC-11
- relative viability (Irinotecan + Decitabine; first compound 0.6325 µM): 0.589
- relative viability (Irinotecan + Decitabine; first compound 2 µM): 0.461
- relative viability (Irinotecan + Decitabine; first compound 6.325 µM): 0.347
- relative viability (Irinotecan + Decitabine; first compound 20 µM): 0.2
- relative viability (Irinotecan + Luminespib; first compound 0.6325 µM): 0.569
- relative viability (Irinotecan + Luminespib; first compound 2 µM): 0.491
- relative viability (Irinotecan + Luminespib; first compound 6.325 µM): 0.383
- relative viability (Irinotecan + Luminespib; first compound 20 µM): 0.192
- relative viability (RU-SKI 43 + Palbociclib; first compound 0.1 µM): 0.317
- relative viability (RU-SKI 43 + Palbociclib; first compound 0.3162 µM): 0.31
- relative viability (RU-SKI 43 + Palbociclib; first compound 1 µM): 0.351
- relative viability (RU-SKI 43 + Palbociclib; first compound 3.162 µM): 0.314
- relative viability (RU-SKI 43 + Palbociclib; first compound 10 µM): 0.323
- relative viability (MK-8033 + Palbociclib; first compound 0.02 µM): 0.329
- relative viability (MK-8033 + Palbociclib; first compound 0.06325 µM): 0.337
- relative viability (MK-8033 + Palbociclib; first compound 0.2 µM): 0.3
- relative viability (MK-8033 + Palbociclib; first compound 0.6325 µM): 0.35
- relative viability (MK-8033 + Palbociclib; first compound 2 µM): 0.343

From the supplement of paper PMC10307832
